Where a name gives a salt, the structure may show the parent alone.
Assays:
[1] = tested on: human whole blood; assay: LPS-stimulation of human whole blood, TNF-α release by ELISA; type: cell-based; conditions: LPS 100 ng/ml, 6 hrs, inhibitor added 2 hrs before, read-out: Inhibitor activity versus human whole blood TNFα release
Description: LPS-Stimulation of Human Whole Blood
Whole blood was taken by venous puncture using heparinised vacutainers (Becton Dickinson) and diluted in an equal volume of RPMI 1640 tissue culture media (Sigma). 100 μl was plated in V-bottomed 96 well tissue culture treated plates. 2 hrs after the addition of the inhibitor in 100 μl of RPMI 1640 media, the blood was stimulated with LPS (E. coli strain 005:B5, Sigma) at a final concentration of 100 ng/ml and incubated at 37° C. in 5% CO2 for 6 hrs. TNF-α levels were measured from cell-free supernatants by sandwich ELISA (R&D Systems #QTA00B)

[2] = tested on: THP-1 cells; assay: LPS-stimulation of THP-1 cells, TNF-α release by ELISA; type: cell-based; conditions: Homo sapiens, LPS 1 μg/ml, 6 hrs, inhibitor added 2 hrs before, read-out: Inhibitor activity versus THP-1 TNFα release
Description: LPS-Stimulation of THP-1 Cells
THP-1 cells were plated in 100 μl at a density of 4×10^4 cells/well in V-bottomed 96 well tissue culture treated plates and incubated at 37° C. in 5% CO2 for 16 hrs. 2 hrs after the addition of the inhibitor in 100 μl of tissue culture media, the cells were stimulated with LPS (E coli strain 005:B5, Sigma) at a final concentration of 1 μg/ml and incubated at 37° C. in 5% CO2 for 6 hrs. TNF-α levels were measured from cell-free supernatants by sandwich ELISA (R&D Systems #QTA00B)

IC50 [1] [nM] | Compound | IC50 [2] [nM]
100 to 1000 | Nc1c(C(=O)c2ccc(F)cc2F)ccc(=O)n1-c1c(F)cc(OCC[C@@H](N)C(=O)OC2CCCC2)cc1F [Example 4, Cyclopentyl (R)-2-Amino-4-{4-[6-amino-5-(2,4-difluorobenzoyl)-2-oxo-2H-pyridin-1-yl]-3,5-difluorophenoxy}butanoate Trifluoroacetate] | –
100 to 1000 | CC(C)(C)OC(=O)[C@@H](N)CCCOc1cc(F)c(-n2c(N)c(C(=O)c3ccc(F)cc3F)ccc2=O)c(F)c1 [Example 6, Tert-Butyl (S)-2-Amino-5-{4-[6-amino-5-(2,4-difluorobenzoyl)-2-oxo-2H-Pyridin-1-yl]-3,5-difluorophenoxy}pentanoate] | –
100 to 1000 | Nc1c(C(=O)c2ccc(F)cc2)ccc(=O)n1-c1c(F)cc(OCCC[C@H](N)C(=O)OC2CCCC2)cc1F [Example 7] | –
– | CC(C)(C)OC(=O)N[C@@H](CCCOc1cc(F)c(-n2c(N)c(C(=O)c3ccc(F)cc3F)ccc2=O)c(F)c1)C(=O)OC1CCCC1 [Intermediate 1, Cyclopentyl (S)-5-{4-[6-Amino-5-(2,4-difluorobenzoyl)-2-oxo-2H-pyridin-1-yl]-3,5-difluorophenoxy}-2-tert-butoxycarbonylamino Pentanoate] | 100 to 1000
– | CC(C)(C)OC(=O)N[C@@H](CCOc1cc(F)c(-n2c(N)c(C(=O)c3ccc(F)cc3F)ccc2=O)c(F)c1)C(=O)OC1CCCC1 [Intermediate 2, Cyclopentyl (S)-4-{4-[6-Amino-5-(2,4-difluorobenzoyl)-2-oxo-2H-pyridin-1-yl]-3,5-difluorophenoxy}-2-tert-butoxycarbonylaminobutyrate] | 100 to 1000

Source: patent US20090203711A1, “Inhibitors of P38 Map Kinase” (CHROMA THERAPEUTICS LTD., priority 2006, published 2009)
